Columns and labels:
[1] = target: Calcium/calmodulin-dependent protein kinase type II subunit alpha (Homo sapiens) (UniProt Q9UQM7); assay: Residual activity of CAMK2A at 10 uM by microplate scintillation counting
[2] = target: T1, Serine/threonine-protein kinase Sgk2 (Homo sapiens) (UniProt Q9HBY8); assay: Residual activity of SGK2 at 0.1 uM by microplate scintillation counting
T1 sequence (whole entry): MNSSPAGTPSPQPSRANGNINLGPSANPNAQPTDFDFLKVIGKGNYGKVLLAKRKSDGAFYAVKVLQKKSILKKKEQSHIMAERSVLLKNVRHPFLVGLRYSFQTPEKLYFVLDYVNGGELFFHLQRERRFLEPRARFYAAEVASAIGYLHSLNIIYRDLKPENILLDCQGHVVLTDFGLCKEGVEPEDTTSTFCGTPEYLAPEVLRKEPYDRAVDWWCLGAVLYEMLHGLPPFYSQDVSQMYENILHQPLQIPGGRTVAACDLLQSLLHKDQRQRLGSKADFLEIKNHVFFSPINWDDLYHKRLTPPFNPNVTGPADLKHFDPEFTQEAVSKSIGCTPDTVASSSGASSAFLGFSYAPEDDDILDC

[3] = target: Rho-associated protein kinase 2 (Homo sapiens) (UniProt O75116); assay: Residual activity of ROCK2 at 0.1 uM by microplate scintillation counting
Sequence of Rho-associated protein kinase 2 (Homo sapiens) (O75116 whole entry, looked up): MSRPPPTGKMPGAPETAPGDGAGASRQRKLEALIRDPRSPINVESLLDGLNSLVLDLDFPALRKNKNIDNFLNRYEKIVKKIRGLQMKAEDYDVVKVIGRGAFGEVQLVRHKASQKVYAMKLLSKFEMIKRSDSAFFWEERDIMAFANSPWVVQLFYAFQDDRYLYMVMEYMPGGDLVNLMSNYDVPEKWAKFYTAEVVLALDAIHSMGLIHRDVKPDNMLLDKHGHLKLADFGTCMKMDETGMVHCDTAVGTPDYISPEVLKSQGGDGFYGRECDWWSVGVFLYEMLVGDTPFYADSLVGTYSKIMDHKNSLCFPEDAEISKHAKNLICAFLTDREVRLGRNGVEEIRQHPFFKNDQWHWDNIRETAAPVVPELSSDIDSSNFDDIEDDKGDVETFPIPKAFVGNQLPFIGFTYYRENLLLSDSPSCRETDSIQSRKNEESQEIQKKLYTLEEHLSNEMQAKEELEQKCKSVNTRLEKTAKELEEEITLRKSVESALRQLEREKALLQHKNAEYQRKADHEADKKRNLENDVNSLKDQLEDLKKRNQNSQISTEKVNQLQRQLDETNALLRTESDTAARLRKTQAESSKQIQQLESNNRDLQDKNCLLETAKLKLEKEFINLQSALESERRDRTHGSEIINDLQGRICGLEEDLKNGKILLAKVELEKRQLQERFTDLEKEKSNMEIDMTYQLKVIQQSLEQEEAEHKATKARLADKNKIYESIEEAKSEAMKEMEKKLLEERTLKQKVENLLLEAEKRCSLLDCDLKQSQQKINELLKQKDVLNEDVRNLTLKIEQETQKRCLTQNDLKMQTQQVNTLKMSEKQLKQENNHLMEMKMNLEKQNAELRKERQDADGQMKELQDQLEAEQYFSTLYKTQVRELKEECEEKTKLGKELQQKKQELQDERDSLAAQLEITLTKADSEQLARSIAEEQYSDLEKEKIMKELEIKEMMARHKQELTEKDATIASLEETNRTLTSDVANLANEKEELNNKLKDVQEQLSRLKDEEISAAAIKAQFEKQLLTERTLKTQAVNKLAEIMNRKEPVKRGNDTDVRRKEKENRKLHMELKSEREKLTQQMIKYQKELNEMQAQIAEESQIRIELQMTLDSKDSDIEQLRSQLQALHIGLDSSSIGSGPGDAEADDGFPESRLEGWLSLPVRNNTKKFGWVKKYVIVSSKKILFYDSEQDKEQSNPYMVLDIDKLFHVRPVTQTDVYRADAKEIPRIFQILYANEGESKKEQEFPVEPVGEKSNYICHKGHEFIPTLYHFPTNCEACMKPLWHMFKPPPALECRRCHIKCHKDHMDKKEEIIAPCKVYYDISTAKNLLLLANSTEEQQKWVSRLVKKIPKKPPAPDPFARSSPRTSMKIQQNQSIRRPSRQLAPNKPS

[4] = target: Tyrosine-protein kinase BTK (Homo sapiens) (UniProt Q06187); assay: Residual activity of BTK at 10 uM by microplate scintillation counting
Sequence of Tyrosine-protein kinase BTK (Homo sapiens) (Q06187 whole entry): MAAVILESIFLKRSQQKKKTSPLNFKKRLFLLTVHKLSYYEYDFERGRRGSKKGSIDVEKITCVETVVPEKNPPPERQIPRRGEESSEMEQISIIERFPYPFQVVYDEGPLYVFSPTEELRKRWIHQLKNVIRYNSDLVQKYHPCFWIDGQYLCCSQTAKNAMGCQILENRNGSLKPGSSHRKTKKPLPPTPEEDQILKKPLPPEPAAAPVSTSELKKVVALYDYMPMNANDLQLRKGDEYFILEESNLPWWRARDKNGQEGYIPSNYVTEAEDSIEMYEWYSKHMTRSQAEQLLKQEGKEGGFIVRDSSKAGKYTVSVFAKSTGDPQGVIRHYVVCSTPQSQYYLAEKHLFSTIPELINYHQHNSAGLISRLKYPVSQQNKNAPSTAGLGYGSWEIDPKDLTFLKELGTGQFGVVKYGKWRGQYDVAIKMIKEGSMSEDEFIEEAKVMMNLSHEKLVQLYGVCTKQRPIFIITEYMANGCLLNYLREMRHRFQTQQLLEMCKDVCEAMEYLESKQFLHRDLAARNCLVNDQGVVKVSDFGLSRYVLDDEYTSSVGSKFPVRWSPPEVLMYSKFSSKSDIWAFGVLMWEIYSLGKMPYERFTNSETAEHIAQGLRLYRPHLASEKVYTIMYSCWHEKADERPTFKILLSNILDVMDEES

[5] = target: Insulin receptor-related protein (Homo sapiens) (UniProt P14616); assay: Residual activity of INSRR at 10 uM by microplate scintillation counting
[6] = target: ALK tyrosine kinase receptor (Homo sapiens) (UniProt Q9UM73); assay: Residual activity of ALK at 1 uM by microplate scintillation counting
[7] = target: Mitogen-activated protein kinase kinase kinase kinase 4 (Homo sapiens) (UniProt O95819); assay: Residual activity of MAP4K4 at 1 uM by microplate scintillation counting
[8] = target: Fibroblast growth factor receptor 1 (Homo sapiens) (UniProt P11362); assay: Residual activity of wild type FGF-R1 at 0.1 uM by microplate scintillation counting
Sequence of Fibroblast growth factor receptor 1 (Homo sapiens) (P11362 22-822 limits assumed): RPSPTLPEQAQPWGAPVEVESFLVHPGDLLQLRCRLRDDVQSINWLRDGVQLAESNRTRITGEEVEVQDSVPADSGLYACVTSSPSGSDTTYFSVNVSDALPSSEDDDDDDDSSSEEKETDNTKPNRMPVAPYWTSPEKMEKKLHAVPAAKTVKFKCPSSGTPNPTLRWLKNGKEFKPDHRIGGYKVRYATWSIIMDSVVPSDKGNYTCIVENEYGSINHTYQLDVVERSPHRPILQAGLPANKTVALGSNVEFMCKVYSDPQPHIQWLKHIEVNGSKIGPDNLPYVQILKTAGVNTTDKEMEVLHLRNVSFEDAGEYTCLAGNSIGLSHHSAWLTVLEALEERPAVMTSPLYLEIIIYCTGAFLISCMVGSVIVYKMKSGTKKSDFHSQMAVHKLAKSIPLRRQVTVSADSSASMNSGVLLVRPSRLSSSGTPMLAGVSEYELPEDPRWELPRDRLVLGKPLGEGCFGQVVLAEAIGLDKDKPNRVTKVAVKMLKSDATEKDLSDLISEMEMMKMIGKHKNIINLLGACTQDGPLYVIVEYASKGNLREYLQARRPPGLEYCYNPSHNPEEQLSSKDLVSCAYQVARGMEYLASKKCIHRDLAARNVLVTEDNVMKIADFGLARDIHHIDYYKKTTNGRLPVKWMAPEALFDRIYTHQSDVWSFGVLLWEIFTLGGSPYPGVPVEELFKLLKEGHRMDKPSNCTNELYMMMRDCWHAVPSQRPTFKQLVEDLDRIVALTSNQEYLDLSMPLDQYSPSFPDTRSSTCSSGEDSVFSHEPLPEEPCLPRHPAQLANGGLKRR

[9] = target: Dual specificity tyrosine-phosphorylation-regulated kinase 1B (Homo sapiens) (UniProt Q9Y463); assay: Residual activity of DYRK1B at 1 uM by microplate scintillation counting
[10] = target: Cyclin-dependent kinase 1/cyclin B1 (Homo sapiens) (UniProt P06493+P14635); assay: Residual activity of CDK1/CyclinB1 at 1 uM by microplate scintillation counting; assay type: protein-complex assay
Sequence of Cyclin-dependent kinase 1/cyclin B1 (Homo sapiens) (P06493 whole entry, looked up, canonical isoform): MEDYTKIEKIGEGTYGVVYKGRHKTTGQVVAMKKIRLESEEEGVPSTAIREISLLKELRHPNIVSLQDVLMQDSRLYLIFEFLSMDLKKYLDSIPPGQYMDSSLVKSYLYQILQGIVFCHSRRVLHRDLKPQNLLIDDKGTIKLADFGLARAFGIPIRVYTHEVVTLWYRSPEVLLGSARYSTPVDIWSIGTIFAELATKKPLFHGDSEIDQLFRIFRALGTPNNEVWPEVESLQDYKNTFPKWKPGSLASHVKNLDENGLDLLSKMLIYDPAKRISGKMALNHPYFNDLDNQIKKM
Sequence of Cyclin-dependent kinase 1/cyclin B1 (Homo sapiens) (P14635 whole entry, looked up, canonical isoform): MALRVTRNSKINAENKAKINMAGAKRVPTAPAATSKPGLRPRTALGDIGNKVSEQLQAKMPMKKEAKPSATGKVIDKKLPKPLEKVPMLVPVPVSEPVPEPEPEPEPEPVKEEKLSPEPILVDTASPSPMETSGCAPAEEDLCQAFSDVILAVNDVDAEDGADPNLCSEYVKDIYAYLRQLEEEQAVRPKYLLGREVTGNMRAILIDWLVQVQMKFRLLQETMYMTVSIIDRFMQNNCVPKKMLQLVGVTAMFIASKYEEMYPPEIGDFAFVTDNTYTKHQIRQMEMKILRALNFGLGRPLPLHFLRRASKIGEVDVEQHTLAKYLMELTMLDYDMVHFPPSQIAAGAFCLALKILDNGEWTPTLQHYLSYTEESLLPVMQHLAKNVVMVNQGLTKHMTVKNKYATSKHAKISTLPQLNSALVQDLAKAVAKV

[11] = target: Casein kinase I isoform alpha (Homo sapiens) (UniProt P48729); assay: Residual activity of CK1alpha1 at 1 uM by microplate scintillation counting
Sequence of Casein kinase I isoform alpha (Homo sapiens) (P48729 2-337 limits assumed): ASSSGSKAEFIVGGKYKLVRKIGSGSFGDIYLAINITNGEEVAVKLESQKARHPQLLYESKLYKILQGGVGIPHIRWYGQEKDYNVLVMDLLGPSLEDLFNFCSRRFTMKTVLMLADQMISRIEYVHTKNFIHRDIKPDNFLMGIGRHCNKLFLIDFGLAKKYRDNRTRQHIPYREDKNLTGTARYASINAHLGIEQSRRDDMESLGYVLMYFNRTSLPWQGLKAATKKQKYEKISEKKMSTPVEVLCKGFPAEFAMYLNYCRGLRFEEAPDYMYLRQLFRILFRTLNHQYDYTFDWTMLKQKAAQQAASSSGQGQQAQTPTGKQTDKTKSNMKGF

[12] = target: Platelet-derived growth factor receptor alpha (Homo sapiens) (UniProt P16234); assay: Residual activity of PDGFRalpha at 0.1 uM by microplate scintillation counting
Sequence of Platelet-derived growth factor receptor alpha (Homo sapiens) (P16234 whole entry): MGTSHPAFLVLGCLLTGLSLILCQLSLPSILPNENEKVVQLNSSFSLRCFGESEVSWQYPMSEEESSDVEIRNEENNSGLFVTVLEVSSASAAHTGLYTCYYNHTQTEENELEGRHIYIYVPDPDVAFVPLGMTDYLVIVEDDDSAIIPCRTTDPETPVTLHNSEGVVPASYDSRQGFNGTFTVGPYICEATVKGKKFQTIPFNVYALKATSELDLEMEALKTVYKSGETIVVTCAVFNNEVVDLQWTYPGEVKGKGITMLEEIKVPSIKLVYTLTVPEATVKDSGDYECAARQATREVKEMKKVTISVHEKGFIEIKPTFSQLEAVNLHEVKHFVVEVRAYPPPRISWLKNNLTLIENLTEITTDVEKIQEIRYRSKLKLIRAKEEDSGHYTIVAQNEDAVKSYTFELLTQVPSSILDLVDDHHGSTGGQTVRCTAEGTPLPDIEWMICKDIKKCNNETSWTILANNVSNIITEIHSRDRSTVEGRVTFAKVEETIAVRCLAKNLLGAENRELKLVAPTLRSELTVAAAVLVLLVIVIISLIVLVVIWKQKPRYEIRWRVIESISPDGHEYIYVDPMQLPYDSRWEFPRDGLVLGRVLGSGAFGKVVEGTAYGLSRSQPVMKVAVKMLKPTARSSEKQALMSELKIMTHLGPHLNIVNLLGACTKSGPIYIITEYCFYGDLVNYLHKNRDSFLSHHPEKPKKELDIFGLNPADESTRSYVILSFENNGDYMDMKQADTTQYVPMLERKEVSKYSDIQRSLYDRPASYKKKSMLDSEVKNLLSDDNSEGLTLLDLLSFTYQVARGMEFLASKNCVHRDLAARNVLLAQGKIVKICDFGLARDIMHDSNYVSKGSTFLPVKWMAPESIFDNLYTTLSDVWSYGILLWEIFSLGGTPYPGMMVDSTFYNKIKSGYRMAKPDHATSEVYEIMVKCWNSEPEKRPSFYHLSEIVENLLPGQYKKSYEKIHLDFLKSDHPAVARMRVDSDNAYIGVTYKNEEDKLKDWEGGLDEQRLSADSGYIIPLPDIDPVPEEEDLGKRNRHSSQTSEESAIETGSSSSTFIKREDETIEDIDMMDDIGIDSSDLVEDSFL

[13] = target: Mitogen-activated protein kinase 10 (Homo sapiens) (UniProt P53779); assay: Residual activity of JNK3 at 10 uM by microplate scintillation counting
[14] = target: Tyrosine-protein kinase Fer (Homo sapiens) (UniProt P16591); assay: Residual activity of FER at 0.1 uM by microplate scintillation counting
[15] = target: Activin receptor type-1-like (Homo sapiens) (UniProt P37023); assay: Residual activity of ACV-RL1 at 10 uM by microplate scintillation counting
[16] = target: Protein kinase C alpha type (Homo sapiens) (UniProt P17252); assay: Residual activity of PKCalpha at 10 uM by microplate scintillation counting
[17] = target: Vascular endothelial growth factor receptor 3 (Homo sapiens, UniProt P35916); assay: Residual activity of VEGFR3 at 1 uM by microplate scintillation counting
[18] = target: T2, Tyrosine-protein kinase Mer (Homo sapiens) (UniProt Q12866); assay: Residual activity of MERTK at 1 uM by microplate scintillation counting
T2 sequence (whole entry): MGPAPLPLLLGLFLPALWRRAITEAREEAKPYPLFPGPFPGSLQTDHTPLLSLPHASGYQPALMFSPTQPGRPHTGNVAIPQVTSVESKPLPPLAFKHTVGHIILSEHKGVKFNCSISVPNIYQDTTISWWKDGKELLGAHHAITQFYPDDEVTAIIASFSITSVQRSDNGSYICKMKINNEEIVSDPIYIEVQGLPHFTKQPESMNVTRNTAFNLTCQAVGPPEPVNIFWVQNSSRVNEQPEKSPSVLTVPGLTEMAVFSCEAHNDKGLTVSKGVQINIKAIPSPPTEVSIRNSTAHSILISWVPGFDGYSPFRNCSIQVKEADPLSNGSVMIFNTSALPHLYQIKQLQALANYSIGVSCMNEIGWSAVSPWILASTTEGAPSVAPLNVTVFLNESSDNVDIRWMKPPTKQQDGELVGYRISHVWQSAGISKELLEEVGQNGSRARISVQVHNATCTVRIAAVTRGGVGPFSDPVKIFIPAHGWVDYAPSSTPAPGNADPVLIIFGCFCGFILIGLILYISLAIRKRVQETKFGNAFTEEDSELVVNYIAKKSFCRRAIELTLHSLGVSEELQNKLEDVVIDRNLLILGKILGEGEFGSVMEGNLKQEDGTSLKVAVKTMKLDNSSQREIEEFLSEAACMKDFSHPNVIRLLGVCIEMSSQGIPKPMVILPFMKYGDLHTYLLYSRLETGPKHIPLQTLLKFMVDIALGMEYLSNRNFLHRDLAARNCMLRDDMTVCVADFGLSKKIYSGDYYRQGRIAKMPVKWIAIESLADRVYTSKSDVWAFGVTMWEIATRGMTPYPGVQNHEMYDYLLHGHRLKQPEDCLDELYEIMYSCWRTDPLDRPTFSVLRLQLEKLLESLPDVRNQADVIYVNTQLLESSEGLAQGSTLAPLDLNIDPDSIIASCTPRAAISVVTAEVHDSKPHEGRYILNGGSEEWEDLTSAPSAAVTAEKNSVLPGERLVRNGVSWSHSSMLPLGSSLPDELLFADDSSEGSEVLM

`COc1cc2c(Oc3ccc(-c4nc5ccccc5s4)cc3)ncnc2cc1OCCCN1CCN(C)CC1` showed a residual activity [1] of 10%, a residual activity [2] of 93% and a residual activity [3] of 98%. For the same molecule, the residual activity [4] was 40%, the residual activity [5] was 51% and the residual activity [6] was 171%. It also gave a residual activity [7] of 81%, a residual activity [8] of 103% and a residual activity [9] of 105%. The residual activity [10] was 89%, the residual activity [11] was 99% and the residual activity [12] was 86%. It also gave a residual activity [13] of 52%, a residual activity [14] of 104% and a residual activity [15] of 84%. It also gave a residual activity [16] of 80%, a residual activity [17] of 34% and a residual activity [18] of 16%.

`COc1cc2c(Oc3ccc(-c4nc5ccccc5s4)cc3)ncnc2cc1OCCCN1CCCC1` was tested, and the residual activity [1] was 11%, the residual activity [2] was 94% and the residual activity [3] was 119%. For the same molecule, the residual activity [4] was 53%, the residual activity [5] was 43% and the residual activity [6] was 169%. The residual activity [7] was 88%, the residual activity [8] was 101% and the residual activity [9] was 98%. For the same molecule, the residual activity [10] was 81%, the residual activity [11] was 102% and the residual activity [12] was 86%. It also gave a residual activity [13] of 84%, a residual activity [14] of 96% and a residual activity [15] of 87%. It also gave a residual activity [16] of 61%, a residual activity [17] of 32% and a residual activity [18] of 11%.

`COc1cc2c(Oc3ccc(-c4nc5ccccc5s4)cc3F)ncnc2cc1OCCCN1CCN(C)CC1` showed a residual activity [1] of 21%, a residual activity [2] of 95% and a residual activity [3] of 82%. For the same molecule, the residual activity [4] was 6%, the residual activity [5] was 7% and the residual activity [6] was 178%. For the same molecule, the residual activity [7] was 97%, the residual activity [8] was 95% and the residual activity [9] was 95%. For the same molecule, the residual activity [10] was 99%, the residual activity [11] was 103% and the residual activity [12] was 94%. For the same molecule, the residual activity [13] was 45%, the residual activity [14] was 108% and the residual activity [15] was 91%. It also gave a residual activity [16] of 50%, a residual activity [17] of 30% and a residual activity [18] of 19%.

— ChEMBL document CHEMBL1152560, “Substituted 2-arylbenzothiazoles as kinase inhibitors: hit-to-lead optimization” (Bioorg Med Chem, 2009)
